# “Also recorded” adds a separate entry of the source.
# How the values were obtained:
# [1] = system: New Zealand albino male rabbits (eye); conditions: known; rabbits and humans; cited from earlier work
# [2] = system: RGC in OHT Dark Agouti (DA) rats; format: in vivo; conditions: topical eye drops from two days prior to induction, three weeks, versus OHT only
# Aqueous solubility = format: physicochemical
# HCE-S tight junctions = test: HCE-S transwell barrier: transepithelial resistance (TER); format: cell-based, human; conditions: 2 h exposure, up to 300 μM 3-OH-C12 HSL
# Method: (§1) HCE-S cells (Immortalized Human Corneal Epithelial Cells) were cultured as a monolayer in 90% DMEM supplemented with 10% heat inactivated FBS and penicillin-streptomycin (100 U/mL). Cells were cultured at 37° C. in a humidified incubator with 5% CO2 and growth medium was replaced every three days. HCE-S populations were grown to 80% confluence before passage to 20% using 0.25% Trypsin-EDTA. Prior to each experiment cell populations were estimated using a haemocytometer and trypan blue exclusion assay.
# HCE-S barrier models for transcytosis assays were prepared using an adaptation of a previously described method (Reichl (2008)). HCE-S cells (5×10^4 cells/well) were seeded on transwell inserts (polycarbonate, 3 μm pore size, 1.13 cm^2) and maintained for 7 days refreshing the medium in the apical and basal chambers every second day. […] Prior to each experiment culture medium was replaced with phenol red free DMEM and barrier integrity measured via transepithelial resistance (TER). […]
# FIGS. 21A-21D and FIGS. 22Ai-22Biii. Baseline TER was recorded before addition of […] 3-OH-C12 HSL in micelles (assuming 100% drug loading) or equivalent concentrations of micelles only (vehicle control) dissolved in phenol-red free culture medium for 2 h. After this time, TER was recorded before culture medium was replaced with fresh. […]
# [3] = compared with 3-oxo-C12 HSL; cited from earlier work
# [4] = system: HCE-S transwell barrier model; test: HCE-S transwell barrier: transcytosis of model drugs; format: cell-based, human; conditions: pre-treatment of HCE-S for 2 h with 300 μM
# Method: HCE-S barrier models for transcytosis assays were prepared using an adaptation of a previously described method (Reichl (2008)). HCE-S cells (5×10^4 cells/well) were seeded on transwell inserts (polycarbonate, 3 μm pore size, 1.13 cm^2) and maintained for 7 days refreshing the medium in the apical and basal chambers every second day. After this time cells were cultured for a further 10 days at an apical air interface to encourage development of a multilayer barrier. Prior to each experiment culture medium was replaced with phenol red free DMEM and barrier integrity measured via transepithelial resistance (TER). […]
# FIGS. 21A-21D and FIGS. 22Ai-22Biii. Baseline TER was recorded before addition of […] 3-OH-C12 HSL in micelles (assuming 100% drug loading) or equivalent concentrations of micelles only (vehicle control) dissolved in phenol-red free culture medium for 2 h. After this time, TER was recorded before culture medium was replaced with fresh. To the apical chamber, a model drug molecule (FITC-dextran or Avastin) was added and the concentration of this agent in the basolateral chamber was measured either by monitoring FITC fluorescence (FITC-dextran) versus a standard curve of known concentrations or using a commercially available Avastin sandwich ELISA kit as previously described (Davis et al. (2014)). […]
# [5] = system: immortalized human corneal epithelial cell line (HCE-S); test: Cell toxicity test in corneal epithelial cells; format: cell-based; conditions: compared with 3-oxo-C12 HSL and Benzalkonium chloride (BAK)
# Method: as §1
# [6] = topical formulation, Sigurdsson et al; cited from earlier work
compound,measurement,setting,value
Benzalkonium chloride [BAK],ocular irritation,[1],potent ocular irritation
COc1cc(/C=C/C(=O)CC(=O)/C=C/c2ccc(O)c(OC)c2)ccc1O [FC],RGC density / RGC loss (neuroprotective effect),[2],"did not have this effect; also recorded: no significant protective effect; also recorded: not FC treatment, significantly reduced RGC loss"
"COc1cc(C=CC(=O)CC(=O)C=Cc2ccc(O)c(OC)c2)ccc1O [curcumin, 1,7-bis-(4-hydroxy-3-methoxyphenyl)-1,6-heptadiene-3,5-dione]",solubility in distilled water,Aqueous solubility; 2 mg/mL curcumin,very poorly soluble
"CCCCCCCCCC(O)CC(=O)NC1CCOC1=O (centres unmarked) [3-OH-C12 HSL, 3-hydroxydodecanoyl homoserine lactone]","disruption of tight junctions (TER, percentage of control)",HCE-S tight junctions,reversible disruption of Tight junctions
same,water solubility,Aqueous solubility,low water solubility
same,resistance to hydrolysis,[3],higher resistance to hydrolysis
same,transcytosis of 40 kDa FITC Dextran,[4],significantly enhanced
same,transcytosis of 149 kDa Avastin,[4],significantly enhanced
same,cell toxicity (tolerability),[5],better tolerated
C[C@@H]1C[C@H]2[C@@H]3CCC4=CC(=O)C=C[C@]4(C)[C@@]3(F)[C@@H](O)C[C@]2(C)[C@@]1(O)C(=O)CO [dexamethasone],entry into the retina by systemic absorption route,[6],40%
same,entry into the retina via topical penetration,[6],60%
